Assay results published in publication PMC6627609, “Targeting Quorum Sensing: High-Throughput Screening to Identify Novel LsrK Inhibitors” (International Journal of Molecular Sciences, 2019).
Counter-ions that a name gives are not always drawn.

These compounds were tested against LsrK (Salmonella typhimurium, UniProt Q8ZKQ6) (assay: biochemical). Details: not given.
Format: biochemical, S. typhimurium

LsrK, sequence (Q8ZKQ6 whole entry): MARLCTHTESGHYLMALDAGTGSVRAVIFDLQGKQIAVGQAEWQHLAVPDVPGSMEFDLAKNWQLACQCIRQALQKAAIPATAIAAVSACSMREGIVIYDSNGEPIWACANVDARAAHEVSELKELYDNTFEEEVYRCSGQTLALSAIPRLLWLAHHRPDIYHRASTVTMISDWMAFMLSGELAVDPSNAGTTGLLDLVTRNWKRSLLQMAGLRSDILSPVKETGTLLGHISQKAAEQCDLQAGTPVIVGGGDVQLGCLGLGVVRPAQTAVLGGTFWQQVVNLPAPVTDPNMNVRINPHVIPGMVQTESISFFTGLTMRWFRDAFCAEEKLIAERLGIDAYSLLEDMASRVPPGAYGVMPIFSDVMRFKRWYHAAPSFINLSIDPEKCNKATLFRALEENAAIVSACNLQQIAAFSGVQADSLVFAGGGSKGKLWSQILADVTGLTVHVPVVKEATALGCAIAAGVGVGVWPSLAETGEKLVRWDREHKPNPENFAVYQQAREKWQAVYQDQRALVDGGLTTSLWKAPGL

| SMILES | inhibition at 50 µM [%] |
| --- | --- |
| COc1cc(CNC(=O)CCCC/C=C/C(C)C)ccc1O [CAPSAICIN] | 2 |
| CC1=C(/C=C/C(C)=C/C=C/C(C)=C/C=C/C=C(C)/C=C/C=C(C)/C=C/C(=O)[C@]2(C)C[C@@H](O)CC2(C)C)C(C)(C)C[C@H](O)C1 [CAPSANTHIN] | 1 |
| COC(=O)C[C@H]1C(C)(C)C(=O)[C@@H]2CC3C4=CC(=O)O[C@@H](c5ccoc5)[C@]4(C)CC[C@@H]3[C@@]1(C)C2=O (stereo partly drawn) [CARAPIN] | 2 |
| C[N+](C)(C)CCOC(N)=O [CARBACHOL] | 1 |
| COC(=O)N/N=C/c1c[n+]([O-])c2ccccc2[n+]1[O-] [CARBADOX] | 3 |
| C[C@@](Cc1ccc(O)c(O)c1)(NN)C(=O)O [CARBIDOPA] | 0 |
| Cc1c(C(=O)O)c(O)cc2c1C(=O)c1c(O)c([C@@H]3O[C@H](CO)[C@@H](O)[C@H](O)[C@H]3O)c(O)c(O)c1C2=O [CARMINIC ACID] | 6 |
| O=NN(CCCl)C(=O)NCCCl [CARMUSTINE] | 10 |
| CC(C)c1cc2c(c(O)c1O)[C@@]1(C(=O)O)CCCC(C)(C)[C@@H]1CC2 [CARNOSIC ACID] | 2 |
| NCCC(=O)N[C@@H](Cc1cnc[nH]1)C(=O)O [CARNOSINE] | 0 |
| CC(C(=O)O)c1ccc2c(c1)[nH]c1ccc(Cl)cc12 (stereo not drawn) [CARPROFEN] | 1 |
| C[C@@H]1CC[C@H]2C(C)(C)[C@H]3C[C@@]12CC[C@@]3(C)O [CEDROL] | 13 |
| N[C@@H](C(=O)N[C@@H]1C(=O)N2C(C(=O)O)=C(Cl)CS[C@H]12)c1ccccc1 [CEFACLOR] | 24 |
| CC1=C(C(=O)O)N2C(=O)[C@@H](NC(=O)[C@H](N)c3ccc(O)cc3)[C@H]2SC1 [CEFADROXIL] | 1 |
| Cn1nnnc1SCC1=C(C(=O)O)N2C(=O)[C@@H](NC(=O)[C@H](OC=O)c3ccccc3)[C@H]2SC1 [CEFAMANDOLE NAFATE] | 1 |
| Cn1nnnc1SCC1=C(C(=O)O)N2C(=O)[C@@H](NC(=O)[C@H](O)c3ccccc3)[C@H]2SC1 [CEFAMANDOLE SODIUM] | 15 |
| Cc1nnc(SCC2=C(C(=O)O)N3C(=O)[C@@H](NC(=O)Cn4cnnn4)[C@H]3SC2)s1 [CEFAZOLIN SODIUM] | 1 |
| CCN1CCN(C(=O)N[C@@H](C(=O)N[C@@H]2C(=O)N3C(C(=O)O)=C(CSc4nnnn4C)CS[C@H]23)c2ccc(O)cc2)C(=O)C1=O [CEFOPERAZONE SODIUM] | 0 |
| CO/N=C(\C(=O)N[C@@H]1C(=O)N2C(C(=O)O)=C(COC(C)=O)CS[C@H]12)c1csc(N)n1 [CEFOTAXIME SODIUM] | 32 |
| CO[C@@]1(NC(=O)Cc2cccs2)C(=O)N2C(C(=O)O)=C(COC(N)=O)CS[C@@H]21 [CEFOXITIN SODIUM] | 3 |
| COCC1=C(C(=O)OC(C)OC(=O)OC(C)C)N2C(=O)[C@@H](NC(=O)/C(=N\OC)c3csc(N)n3)[C@H]2SC1 (stereo partly drawn) [CEFPODOXIME PROXETIL] | 24 |

| SMILES | inhibition at 50 µM [%] |
| --- | --- |
| CC(C)(O/N=C(\C(=O)N[C@@H]1C(=O)N2C(C(=O)[O-])=C(C[n+]3ccccc3)CS[C@H]12)c1csc(N)n1)C(=O)O [CEFTAZIDIME] | 70 |
| Nc1nc(/C(=C/CC(=O)O)C(=O)N[C@@H]2C(=O)N3C(C(=O)O)=CCS[C@H]23)cs1 [CEFTIBUTEN] | 105 |
| CO/N=C(\C(=O)N[C@@H]1C(=O)N2C(C(=O)OC(C)OC(C)=O)=C(COC(N)=O)CS[C@H]12)c1ccco1 (stereo partly drawn) [CEFUROXIME AXETIL] | 2 |
| CO/N=C(\C(=O)N[C@@H]1C(=O)N2C(C(=O)O)=C(COC(N)=O)CS[C@H]12)c1ccco1 [CEFUROXIME SODIUM] | 3 |
| Cc1ccc(-c2cc(C(F)(F)F)nn2-c2ccc(S(N)(=O)=O)cc2)cc1 [CELECOXIB] | 1 |
| CC(=O)OCC1=C(C(=O)O)N2C(=O)[C@@H](NC(=O)Cc3cccs3)[C@H]2SC1 [CEPHALOTHIN SODIUM] | 1 |
| O=C(O)COCCN1CCN(C(c2ccccc2)c2ccc(Cl)cc2)CC1 (stereo not drawn) [CETIRIZINE HYDROCHLORIDE] | 1 |
| CCCCCCCCCCCCCCCC[N+](C)(C)C [CETRIMONIUM BROMIDE] | 125 |
| C[C@H](CCC(=O)O)[C@H]1CC[C@H]2[C@@H]3[C@H](O)C[C@@H]4C[C@H](O)CC[C@]4(C)[C@H]3CC[C@]12C [CHENODIOL] | 2 |
| COc1cc(-c2ccc(/N=N/c3ccc4c(S(=O)(=O)O)cc(S(=O)(=O)O)c(N)c4c3O)c(OC)c2)ccc1/N=N/c1ccc2c(S(=O)(=O)O)cc(S(=O)(=O)O)c(N)c2c1O [CHICAGO SKY BLUE] | 41 |
| OC[C@@H](O)[C@H]1O[C@@H]2O[C@H](C(Cl)(Cl)Cl)O[C@@H]2[C@H]1O [CHLORALOSE] | 1 |
| CC(=O)O[C@]1(C(C)=O)CC[C@H]2[C@@H]3C=C(Cl)C4=CC(=O)CC[C@]4(C)[C@H]3CC[C@@]21C [CHLORMADINONE ACETATE] | 1 |
| [H]/N=C(\N/C(=N/[H])Nc1ccc(Cl)cc1)NC(C)C [CHLOROGUANIDE HYDROCHLORIDE] | 1 |
| NS(=O)(=O)c1cc2c(cc1Cl)N=CNS2(=O)=O [CHLOROTHIAZIDE] | 0 |
| Oc1c(Cl)cc(Cl)c2cccnc12 [CHLOROXINE] | 13 |
| CCCNC(=O)NS(=O)(=O)c1ccc(Cl)cc1 [CHLORPROPAMIDE] | 1 |
| CN(C)CC/C=C1/c2ccccc2Sc2ccc(Cl)cc21 [CHLORPROTHIXENE HYDROCHLORIDE] | 2 |
| CCOP(=S)(OCC)Oc1nc(Cl)c(Cl)cc1Cl [CHLORPYRIFOS] | 0 |
| Cc1ccc2c(Cl)cc(Cl)c(O)c2n1 [CHLORQUINALDOL] | 0 |
| CN(C)[C@@H]1C(O)=C(C(N)=O)C(=O)[C@@]2(O)C(O)=C3C(=O)c4c(O)ccc(Cl)c4[C@@](C)(O)[C@H]3C[C@@H]12 [CHLORTETRACYCLINE HYDROCHLORIDE] | 77 |
| C[C@H](CCC(=O)O)[C@H]1CC[C@H]2[C@@H]3CCC4CCCC[C@]4(C)[C@H]3C=C[C@]12C (stereo partly drawn) [CHOL-11-ENIC ACID] | 45 |

| SMILES | inhibition at 50 µM [%] |
| --- | --- |
| C=C1CC[C@H](O)C/C1=C/C=C1\CCC[C@]2(C)[C@@H]([C@H](C)CCCC(C)C)CC[C@@H]12 [CHOLECALCIFEROL] | 90 |
| CC(C)CCC[C@@H](C)[C@H]1CC[C@H]2[C@@H]3CC=C4C[C@@H](O)CC[C@]4(C)[C@H]3CC[C@]12C [CHOLESTEROL] | 0 |
| C[C@H](CCC(=O)O)[C@H]1CC[C@H]2[C@@H]3[C@H](O)C[C@@H]4C[C@H](O)CC[C@]4(C)[C@H]3C[C@H](O)[C@]12C [CHOLIC ACID] | 0 |
| COc1cc(OC)c2c(=O)cc(-c3ccccc3)oc2c1 [CHRYSIN DIMETHYL ETHER] | 1 |
| O=c1cc(-c2ccccc2)oc2cc(O)cc(O)c12 [CHRYSIN] | 3 |
| Cc1cc(O)c2c(c1)C(=O)c1cccc(O)c1C2=O [CHRYSOPHANOL] | 1 |
| COC(=O)C[C@H]1C2(C)CC34OC5(C)O[C@@]6([C@H](OC)C(OC(=O)C(C)C)[C@]7(C)C(/C(=C(/OC)C(C)C)C(=O)O[C@H]7c7ccoc7)[C@@]6(O5)[C@H](OC)[C@@]3(OC)C2OC(C)=O)[C@]14C (stereo partly drawn) [CHUKRASIN METHYL ETHER] | 1 |
| O=C(O)CCCCCCCCCCCC[C@@H]1C=CCC1 [CH[…]] | 156 |
| O=C1CCc2cc(OCCCCc3nnnn3C3CCCCC3)ccc2N1 [CILOSTAZOL] | 2 |
| C=C[C@H]1CN2CC[C@H]1C[C@H]2[C@H](O)c1ccnc2ccccc12 [CINCHONIDINE] | 0 |
| C=C[C@H]1C[N@@]2CC[C@H]1C[C@@H]2[C@@H](O)c1ccnc2ccccc12 [CINCHONINE] | 1 |
| O=C(O)c1cc(-c2ccccc2)nc2ccccc12 [CINCHOPHEN] | 6 |
| CC12CCC(CC1)C(C)(C)O2 [CINEOLE] | 1 |
| O=C(O)c1cn(C2CC2)c2cc(N3CCNCC3)c(F)cc2c1=O [CIPROFLOXACIN] | 1 |
| CC[C@H]1OC(=O)[C@H](C)[C@@H](O[C@H]2C[C@@](C)(OC)[C@@H](O)[C@H](C)O2)[C@H](C)[C@@H](O[C@@H]2O[C@H](C)C[C@H](N(C)C)[C@H]2O)[C@](C)(OC)C[C@@H](C)C(=O)[C@H](C)[C@@H](O)[C@]1(C)O [CLARITHROMYCIN] | 0 |
| CCC[C@@H]1C[C@@H](C(=O)N[C@@H]([C@H]2O[C@H](SC)[C@H](O)[C@@H](O)[C@H]2O)[C@H](C)Cl)N(C)C1 [CLINDAMYCIN HYDROCHLORIDE] | 0 |
| Oc1c(I)cc(Cl)c2cccnc12 [CLIOQUINOL] | 1 |
| CCC(=O)O[C@]1(C(=O)CCl)[C@@H](C)C[C@H]2[C@@H]3CCC4=CC(=O)C=C[C@]4(C)[C@@]3(F)[C@@H](O)C[C@@]21C [CLOBETASOL PROPIONATE] | 2 |
| CC(C)/N=c1\cc2n(-c3ccc(Cl)cc3)c3ccccc3nc-2cc1Nc1ccc(Cl)cc1 [CLOFAZIMINE] | 0 |

Same assay, conditions: 50 µM

| SMILES | Inhibition (%) |
| --- | --- |
| CCCCCCCCCCCCCCC(C(=O)O)C(O)(CC(=O)OC)C(=O)O (stereo not drawn) [CAPERATIC ACID] | 8 |
| C[N+](C)(C)CC(O)CC(=O)O.[Cl-] (stereo not drawn) [CARNITINE (dl) HYDROCHLORIDE] | 3 |
| CO/N=C(\C(=O)N[C@@H]1C(=O)N2C(C(=O)OCOC(=O)C(C)(C)C)=C(/C=C\c3scnc3C)CS[C@H]12)c1csc(N)n1 [CEFDITORIN PIVOXIL] | 2 |
| O=C([O-])C1=C(CSc2nnnn2CS(=O)(=O)[O-])CS[C@@H]2[C@H](NC(=O)[C@H](O)c3ccccc3)C(=O)N12.[Na+].[Na+] [CEFONICID SODIUM] | 0 |
| CO/N=C(/C(=O)N[C@@H]1C(=O)N2C(C(=O)[O-])=C(CSc3nc(=O)c([O-])nn3C)CS[C@H]12)c1csc(N)n1.O.O.O.[Na+].[Na+] [CEFTRIAXONE SODIUM TRIHYDRATE] | 0 |
| OC[C@H]1O[C@@H](O[C@H]2[C@H](O)[C@@H](O)[C@H](O)O[C@@H]2CO)[C@H](O)[C@@H](O)[C@@H]1O [CELLOBIOSE (D[+])] | 0 |
| CC(=O)OCC1=C(C(=O)[O-])N2C(=O)[C@@H](NC(=O)CCCC(N)C(=O)O)[C@H]2SC1.[Na+] (stereo partly drawn) [CEPHALOSPORIN C SODIUM] | 32 |
| N.N.[Cl][Pt][Cl] [CISPLATIN] | 2 |
